Data as given in patent US4356183A, “Antihypertensive 4-thiazolidinecarboxylic acids (pyridyl derivatives)” (Santen Pharmaceutical Co., Ltd., priority 1978, dated 1982).

System: contractile response to bradykinin (isolated guinea pig ileum)
Test: Augmentation of contractile response of isolated guinea pig ileum to bradykinin
Format: cell-based
Conditions: Cavia porcellus, bradykinin 0.005 μg/ml; compound added 5 min before; 30° C.; read-out: Bradykinin AC50 (50% augmentation of bradykinin activity inducing the contraction of guinea pig ileum)

| Structure (SMILES) | AC50 [nM] |
| --- | --- |
| C[C@H](CS)C(=O)N1C(c2ccccc2O)SC[C@H]1C(=O)O (some centres unmarked) [Compound 50] | 0.7 |
| COc1ccc(C2SC[C@@H](C(=O)O)N2C(=O)[C@H](C)CS)c(O)c1 (some centres unmarked) [Compound 77] | 1.3 |
